Laboratory results as given in US11274118B2 (priority 2012, dated 2022).
Converted amounts (≈) assume the structure as drawn.

Columns and labels:
Primary cortical cells = test: Reduction of neuronal cell death after a glutamate challenge (MTT / LDH release); type: cell-based; conditions: for inhibition at 5 µM: 24 h, read-out: reduction in cell death at a 5 μM dose; for dose at maximum efficacy: glutamate challenge, primary cortical cells; for Emax: read-out: maximum efficacy, reduction in cell death
physchem [1] = conditions: kinetic from dmso stock
physchem [2] = conditions: buffer, pH 7

## C/C(=N\OC(=O)C1CCNCC1)[C@H]1CC[C@H]2[C@@H]3CCC4=CC(=O)CC[C@]4(C)[C@H]3CC[C@]12C.Cl [Compound 18, (8S,9S,10R,13S,14S,17S)-10,13-Dimethyl-17-((E)-1-(piperidine-4-carbonyloxyimino)ethyl)-6,7,8,9,10,11,12,13,14,15,16,17-dodecahydro-1H-cyclopenta[a]phenanthren-3(2H)-one hydrochloride]
Primary cortical cells
  inhibition at 5 µM: 4%
  dose at maximum efficacy: 10 µM
  Emax: 24%
Physchem [1]; pH 4, aqueous buffer
  solubility at 90 min: 247 µM
Physchem [1]; pH 7, aqueous buffer
  solubility at 90 min: 247 µM

## C/C(=N\OC(=O)c1cccnc1)[C@H]1CC[C@H]2[C@@H]3CCC4=CC(=O)CC[C@]4(C)[C@H]3CC[C@]12C [Compound 14]
Primary cortical cells
  inhibition at 5 µM: 20%
  dose at maximum efficacy: 5 µM
  Emax: 20%
Physchem [1]; pH 4, aqueous buffer
  solubility at 90 min: < 35 µM
Physchem [1]; pH 7, aqueous buffer
  solubility at 90 min: < 35 µM

## C/C(=N\OC(=O)[C@@H]1CCCN1)[C@H]1CC[C@H]2[C@@H]3CCC4=CC(=O)CC[C@]4(C)[C@H]3CC[C@]12C.Cl [Compound 8, (8S,9S,10R,13S,14S,17S)-10,13-Dimethyl-17-((E)-1-((S)-pyrrolidine-2-carbonyloxyimino)ethyl)-6,7,8,9,10,11,12,13,14,15,16,17-dodecahydro-1H-cyclopenta[a]phenanthren-3(2H)-one Hydrochloride]
Primary cortical cells
  inhibition at 5 µM: 21%
  dose at maximum efficacy: 10 µM
  Emax: 33%
Physchem [1]; pH 4, aqueous buffer
  solubility at 90 min: 395 µM
Physchem [1]; pH 7, aqueous buffer
  solubility at 90 min: 34 µM

## C/C(=N\OC(=O)c1ccc[n+](C)c1)[C@H]1CC[C@H]2[C@@H]3CCC4=CC(=O)CC[C@]4(C)[C@H]3CC[C@]12C.[I-] [Compound 15, 3-(((E)-1-((8S,9S,10R,13S,14S,17S)-10,13-Dimethyl-3-oxo-2,3,6,7,8,9,10,11,12,13,14,15,16,17-tetradecahydro-1H-cyclopenta[a]phenanthren-17-yl)ethylideneaminooxy)carbonyl)-1-methylpyridinium iodide]
Primary cortical cells
  inhibition at 5 µM: 0%
  dose at maximum efficacy: 1 µM
  Emax: 14%
Physchem [1]; pH 4, aqueous buffer
  solubility at 90 min: 349 µM
Physchem [1]; pH 7, aqueous buffer
  solubility at 90 min: 212 µM

## C/C(=N\OC(=O)C1CC[N+](C)(C)CC1)[C@H]1CC[C@H]2[C@@H]3CCC4=CC(=O)CC[C@]4(C)[C@H]3CC[C@]12C.[I-] [Compound 20, (8S,9S,10R,13S,14S,17S)-10,13-Dimethyl-17-((E)-1-(1,1-dimethylpiperidine-4-carbonyloxyimino)ethyl)-6,7,8,9,10,11,12,13,14,15,16,17-dodecahydro-1H-cyclopenta[a]phenanthren-3(2H)-one iodide]
Primary cortical cells
  inhibition at 5 µM: 0%
  dose at maximum efficacy: 5 µM
  Emax: 0%
Physchem [1]; pH 4, aqueous buffer
  solubility at 90 min: > 500 µM
Physchem [1]; pH 7, aqueous buffer
  solubility at 90 min: > 500 µM

## C/C(=N\OC(=O)CN1CCN(C)CC1)[C@H]1CC[C@H]2[C@@H]3CCC4=CC(=O)CC[C@]4(C)[C@H]3CC[C@]12C [Compound 13, (8S,9S,10R,13S,14S,17S)-10,13-Dimethyl-17-((E)-1-(2-(4-methylpiperazin-1-yl)acetoxyimino)ethyl)-6,7,8,9,10,11,12,13,14,15,16,17-dodecahydro-1H-cyclopenta[a]phenanthren-3 (2H)-one]
Physchem [2]
  half-life: ~72 h
Physchem [1]; pH 4, aqueous buffer
  solubility at 90 min: 153 µM (≈ 71.9 µg/mL)
Physchem [1]; pH 7, aqueous buffer
  solubility at 90 min: 145 µM (≈ 68.1 µg/mL)

## C/C(=N\OC(=O)[C@@H]1CCC[N+]1(C)C)[C@H]1CC[C@H]2[C@@H]3CCC4=CC(=O)CC[C@]4(C)[C@H]3CC[C@]12C.[I-] [Compound 9, (8S,9S,10R,13S,14S,17S)-10,13-Dimethyl-17-((E)-1-((S)-1,1-Dimethylpyrrolidine-2-carbonyloxyimino)ethyl)-6,7,8,9,10,11,12,13,14,15,16,17-dodecahydro-1H-cyclopenta[a]phenanthren-3(2H)-one iodide]
Physchem [2]
  half-life: 0.833 h
Physchem [1]; pH 4, aqueous buffer
  solubility at 90 min: 345 µM
Physchem [1]; pH 7, aqueous buffer
  solubility at 90 min: 51 µM
